# Tests used:
# B16 = test: Cytotoxicity against Mus musculus (mouse) B16 cells after 3 days by MTT assay; format: functional, cell-based; details: B16, 72 h
# HeLa = test: Cytotoxicity against Homo sapiens (human) HeLa cells; format: functional, cell-based
SMILES,IC50 (B16),IC50 (HeLa)
COc1ccc(OC)c(C(=O)/C=C/c2ccc([N+](=O)[O-])cc2)c1,> 100 µM,–
COc1ccc(OC)c(/C=C/C(=O)c2ccc(OC)c(N)c2)c1,5.6 µM,–
COc1ccc(OC)c(/C=C/C(=O)c2ccc(OC)c([N+](=O)[O-])c2)c1,13 µM,–
COc1ccc(C(=O)/C=C/c2ccccc2)cc1[N+](=O)[O-],> 100 µM,–
COc1ccc(C(=O)/C=C/c2ccccc2)cc1N,> 100 µM,–
COc1ccc(/C=C/C(=O)c2ccc(OC)c([N+](=O)[O-])c2)cc1,> 100 µM,–
COc1ccc(/C=C/C(=O)c2ccc(OC)c(N)c2)cc1,43 µM,–
COc1cccc(/C=C/C(=O)c2ccc(OC)c([N+](=O)[O-])c2)c1,> 100 µM,–
COc1cccc(/C=C/C(=O)c2ccc(OC)c(N)c2)c1,33 µM,–
COc1cc(/C=C/C(=O)c2ccc(OC)c([N+](=O)[O-])c2)cc(OC)c1,5.6 µM,–
COc1cc(/C=C/C(=O)c2ccc(OC)c(N)c2)cc(OC)c1,8.8 µM,–
COc1ccc(/C=C/C(=O)c2ccc(OC)c([N+](=O)[O-])c2)cc1OC,> 100 µM,–
COc1ccc(C(=O)/C=C/c2ccc(OC)c(OC)c2)cc1N,18 µM,–
COc1ccc(C(=O)/C=C/c2cc(OC)c(OC)c(OC)c2)cc1[N+](=O)[O-],> 100 µM,–
COc1ccc(C(=O)/C=C/c2cc(OC)c(OC)c(OC)c2)cc1N,67 µM,–
COc1ccc(OC)c(C(=O)/C=C/c2ccc(N)cc2)c1,> 100 µM,–
COc1ccc(OC)c(C(=O)/C=C/c2ccc(OC)c([N+](=O)[O-])c2)c1,> 100 µM,–
COc1ccc(OC)c(C(=O)/C=C/c2ccc(OC)c(N)c2)c1,2 µM,–
COc1cc(C(=O)/C=C/c2ccc(N)cc2)cc(OC)c1OC,30 µM,0.48 µM
COc1ccc(/C=C/C(=O)c2cc(OC)c(OC)c(OC)c2)cc1N,0.24 µM,–
COc1ccc(/C=C/C(=O)c2cc(OC)c(OC)c(OC)c2)cc1[N+](=O)[O-],> 100 µM,–
COc1cc(C(=O)/C=C/c2ccc([N+](=O)[O-])cc2)cc(OC)c1OC,> 100 µM,73 µM

# Source: ChEMBL document CHEMBL3045661, “SYNTHESIS AND CYTOTOXIC PROPERTIES OF NITRO- AND AMINOCHALCONES” (Med Chem Res, 2005)
